According to patent publication US7825132B2, “Inhibition of FGFR3 and treatment of multiple myeloma” (Novartis Vaccines and Diagnostics, Inc., priority 2002, dated 2010):
Read-outs that look alike come from different tables or passages of the source.

Assays:
[1] = tested on: OPM-2 cells; conditions: Grand et al., Leukemia 2004; cited from earlier work
[2] = tested on: FGF-2 supplemented Matrigel neovascularization
[3] = tested on: ERK (MAPK); assay: ERK (MAPK) phosphorylation in HCT116 tumors; format: in vivo; conditions: dose- and time-dependent
[4] = tested on: VEGFR1, VEGFR2, PDGFRβ, and FGFR1; conditions: KM12L4a tumors after treatment
[5] = tested on: TF-1 cells; assay: cells; conditions: Homo sapiens, TF-1, 72 h
[6] = tested on: PC3 human prostate tumor xenografts
[7] = tested on: cancer and primary cell lines; assay: antiproliferative activity, MTS assay, 27 cancer and primary cell lines (Table 6); format: cell-based; conditions: Homo sapiens, 26 out of the 27 cell lines, 72 hours
Description: . […] The EC50 values were calculated using nonlinear regression. […]

[8] = target: T1, c-Kit (Homo sapiens, UniProt P10721); assay: In vitro RTK kinase assay (TRF or radioactive); format: biochemical; conditions: Table 13
T1 construct: Recombinant proteins corresponding to the cytoplasmic domains of the c-Kit and FLT-3 receptors were purchased (Proquinase); purchased Proquinase
T1 sequence (P10721 546-976 limits assumed): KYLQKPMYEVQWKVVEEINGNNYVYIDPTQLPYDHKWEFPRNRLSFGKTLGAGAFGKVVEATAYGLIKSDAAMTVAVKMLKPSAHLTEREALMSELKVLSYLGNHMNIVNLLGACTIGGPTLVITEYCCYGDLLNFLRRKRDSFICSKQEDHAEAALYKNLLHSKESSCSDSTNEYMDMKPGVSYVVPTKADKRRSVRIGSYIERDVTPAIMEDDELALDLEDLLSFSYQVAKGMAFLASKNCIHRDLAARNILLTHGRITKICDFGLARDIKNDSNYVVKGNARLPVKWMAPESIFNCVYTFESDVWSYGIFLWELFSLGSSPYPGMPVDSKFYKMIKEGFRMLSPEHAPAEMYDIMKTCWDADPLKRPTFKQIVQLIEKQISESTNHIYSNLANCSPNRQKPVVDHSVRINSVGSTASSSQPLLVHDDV

[9] = Compound 1 and metabolite levels in rat plasma, 2 week toxicology study; format: in vivo
[10] = Monkey multiple oral dose experiment, plasma levels; format: in vivo; conditions: compound 1 5 mg/kg BID oral, day 1 and 14 samples
[11] = target: CYP2C9 (Homo sapiens, UniProt P11712); assay: Inhibition of cDNA derived CYP isozymes; format: in vitro ADME; conditions: cDNA-derived (recombinant) CYP2C9
Chain of CYP2C9 (P11712 whole entry): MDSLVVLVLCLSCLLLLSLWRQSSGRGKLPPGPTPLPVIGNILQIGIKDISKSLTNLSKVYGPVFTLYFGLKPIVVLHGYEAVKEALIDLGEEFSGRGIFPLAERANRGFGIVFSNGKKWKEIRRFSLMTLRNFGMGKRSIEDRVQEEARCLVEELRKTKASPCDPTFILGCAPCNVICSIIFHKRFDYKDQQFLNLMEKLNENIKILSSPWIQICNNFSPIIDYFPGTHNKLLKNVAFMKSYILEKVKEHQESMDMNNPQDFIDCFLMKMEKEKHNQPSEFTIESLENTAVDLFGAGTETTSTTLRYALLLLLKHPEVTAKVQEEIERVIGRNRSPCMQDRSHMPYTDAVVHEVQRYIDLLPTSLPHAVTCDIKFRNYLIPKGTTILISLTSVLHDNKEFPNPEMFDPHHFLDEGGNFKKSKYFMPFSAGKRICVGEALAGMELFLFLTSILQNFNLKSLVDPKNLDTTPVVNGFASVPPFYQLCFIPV
Text: (§1) The compound was stable in human liver microsomes. […].

[12] = target: T2, CYP1A2 (Homo sapiens, UniProt P05177); assay: Inhibition of cDNA derived CYP isozymes; format: in vitro ADME; conditions: cDNA-derived (recombinant) CYP1A2
T2 sequence (P05177 1-516): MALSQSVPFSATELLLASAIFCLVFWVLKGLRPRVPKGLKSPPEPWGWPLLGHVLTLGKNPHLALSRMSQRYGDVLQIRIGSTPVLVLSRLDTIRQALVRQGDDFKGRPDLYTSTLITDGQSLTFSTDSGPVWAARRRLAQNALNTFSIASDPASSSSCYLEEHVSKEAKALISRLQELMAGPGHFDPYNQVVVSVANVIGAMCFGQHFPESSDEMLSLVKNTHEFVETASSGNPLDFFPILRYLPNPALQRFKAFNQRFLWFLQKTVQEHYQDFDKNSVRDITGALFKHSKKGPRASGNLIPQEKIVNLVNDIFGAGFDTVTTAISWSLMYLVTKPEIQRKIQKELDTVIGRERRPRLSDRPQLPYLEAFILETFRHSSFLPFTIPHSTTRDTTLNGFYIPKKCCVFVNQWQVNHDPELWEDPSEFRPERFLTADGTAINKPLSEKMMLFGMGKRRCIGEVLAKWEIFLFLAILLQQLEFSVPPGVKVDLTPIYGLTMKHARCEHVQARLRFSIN
Text: as §1

[13] = target: CYP3A4 (Homo sapiens, UniProt P08684); assay: Inhibition of cDNA derived CYP isozymes; format: in vitro ADME; conditions: cDNA-derived (recombinant) CYP3A4
Chain of CYP3A4 (P08684 whole entry): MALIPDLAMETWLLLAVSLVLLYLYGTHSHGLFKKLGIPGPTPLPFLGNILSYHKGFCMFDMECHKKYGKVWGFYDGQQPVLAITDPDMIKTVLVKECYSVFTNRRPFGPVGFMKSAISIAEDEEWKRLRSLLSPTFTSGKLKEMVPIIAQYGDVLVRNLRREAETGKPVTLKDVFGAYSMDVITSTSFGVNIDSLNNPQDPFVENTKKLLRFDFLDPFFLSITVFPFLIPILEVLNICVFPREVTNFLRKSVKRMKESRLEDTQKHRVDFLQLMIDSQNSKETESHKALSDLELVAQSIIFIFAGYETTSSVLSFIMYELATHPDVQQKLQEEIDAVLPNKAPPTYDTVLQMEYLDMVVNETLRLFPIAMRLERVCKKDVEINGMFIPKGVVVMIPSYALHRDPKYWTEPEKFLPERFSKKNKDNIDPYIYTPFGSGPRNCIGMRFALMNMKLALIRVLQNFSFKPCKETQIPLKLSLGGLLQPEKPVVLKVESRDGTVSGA
Text: as §1

[14] = target: CYP2C19 (Homo sapiens, UniProt P33261); assay: Inhibition of cDNA derived CYP isozymes; format: in vitro ADME; conditions: cDNA-derived (recombinant) CYP2C19
Chain of CYP2C19 (P33261 whole entry): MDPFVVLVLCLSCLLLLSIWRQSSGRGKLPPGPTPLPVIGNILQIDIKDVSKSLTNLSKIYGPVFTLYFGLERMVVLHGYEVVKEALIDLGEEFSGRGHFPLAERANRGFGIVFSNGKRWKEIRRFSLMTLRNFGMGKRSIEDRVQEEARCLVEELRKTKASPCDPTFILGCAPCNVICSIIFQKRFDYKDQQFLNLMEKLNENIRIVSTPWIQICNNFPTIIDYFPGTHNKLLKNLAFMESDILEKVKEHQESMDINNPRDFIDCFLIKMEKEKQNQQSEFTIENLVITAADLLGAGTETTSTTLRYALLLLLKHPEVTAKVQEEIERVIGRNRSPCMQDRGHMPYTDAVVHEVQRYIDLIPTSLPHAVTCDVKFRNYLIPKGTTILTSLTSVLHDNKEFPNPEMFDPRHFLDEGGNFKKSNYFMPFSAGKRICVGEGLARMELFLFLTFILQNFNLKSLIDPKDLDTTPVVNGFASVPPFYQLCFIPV

[15] = target: CYP2D6 (Homo sapiens, UniProt P10635); assay: Inhibition of cDNA derived CYP isozymes; format: in vitro ADME; conditions: cDNA-derived (recombinant) CYP2D6
Chain of CYP2D6 (P10635 whole entry): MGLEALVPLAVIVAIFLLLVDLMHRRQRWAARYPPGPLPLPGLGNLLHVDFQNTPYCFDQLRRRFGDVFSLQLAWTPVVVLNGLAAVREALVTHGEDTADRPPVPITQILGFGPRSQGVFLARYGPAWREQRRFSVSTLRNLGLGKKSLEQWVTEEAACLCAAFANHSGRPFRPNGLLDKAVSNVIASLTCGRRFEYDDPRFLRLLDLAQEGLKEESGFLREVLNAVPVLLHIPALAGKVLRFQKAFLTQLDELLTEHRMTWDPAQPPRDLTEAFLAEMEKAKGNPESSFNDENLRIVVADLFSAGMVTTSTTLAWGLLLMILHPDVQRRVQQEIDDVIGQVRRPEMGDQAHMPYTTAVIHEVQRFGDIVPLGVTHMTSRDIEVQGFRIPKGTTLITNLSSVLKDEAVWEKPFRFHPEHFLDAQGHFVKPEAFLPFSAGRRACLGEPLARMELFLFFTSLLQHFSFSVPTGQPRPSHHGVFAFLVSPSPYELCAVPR

For `CCN(CC)CCCCNc1ncc2cc(-c3cc(OC)cc(OC)c3)c(NC(=O)NC(C)(C)C)nc2n1` [PD173074], the “cytotoxic response / apoptosis in OPM2 cells” value [1] is listed as “failed to induce apoptosis”.
In the case of `CN1CCN(c2ccc3nc(-c4c(N)c5c(F)cccc5[nH]c4=O)[nH]c3c2)CC1` [Compound 1], the “% Hb inhibition vs. Vehicle treatment of Matrigel + FGF” value (from here on “% Hb inhibition vs. Vehicle treatment”) ([2]; 30 mg/kg) is reported as 71%, the “% Hb inhibition vs. Vehicle treatment” value ([2]; 200 mg/kg) is reported as 89% and the “% Hb inhibition vs. Vehicle treatment” value ([2]; 300 mg/kg) is reported as 91%. For the same compound, the “inhibition vs. FGF-supplemented controls” value ([2]; range over 30, 100, 200 and 300 mg/kg) was 70-92%, the “phosphorylation of ERK (MAPK)” value [3] was “inhibited” and the “phosphorylation of VEGFR1, VEGFR2, PDGFRβ, and FGFR1” value [4] was “inhibited in a time- and dose-dependent manner”. The EC50 [5] was no more than 50 nM, the “% TGI vs. vehicle” value ([6]; 100 mpk q 2 days) was 75% and the “% TGI vs. vehicle” value ([6]; 100 mpk q 3 days) was 68%. For the same compound, the “% TGI vs. vehicle” value ([6]; 100 mpk q 4 days) was 66% and the “% TGI vs. vehicle” value ([6]; 100 mpk qd, days 1-11) was 60%.
`CN1CCN(c2ccc3[nH]c(-c4c(N)c5c(F)cccc5[nH]c4=O)nc3c2)CC1` [Example 166] showed an EC50 [7] of less than 10 µM.
In the case of `Nc1c(-c2nc3ccc(N4CCNCC4)cc3[nH]2)c(=O)[nH]c2cccc(F)c12` [Compound 3, 4-Amino-5-fluoro-3-(5-piperazin-1-yl-1H-benzimidazol-2-yl)quinolin-2(1H)-one], the IC50 [8] is reported as 0.0002 µM, the “Des-CH3 (ng/ml), estimated from UV” value ([9]; compound 1 30 mg/kg PO, Day 14, 1-2 hr) is reported as 6 ng/mL and the “Des-CH3 (ng/ml), estimated from UV” value ([9]; compound 1 30 mg/kg PO, Day 14, 4-8 hr) is reported as 12 ng/mL. For the same compound, the “Des-CH3 (ng/ml), estimated from UV” value ([9]; compound 1 100 mg/kg PO, Day 1, 1-2 hr) was 35 ng/mL and the “Des-CH3 (ng/ml), estimated from UV” value ([9]; compound 1 100 mg/kg PO, Day 1, 4-8 hr) was 84 ng/mL.
For `C[N+]1([O-])CCN(c2ccc3nc(-c4c(N)c5c(F)cccc5[nH]c4=O)[nH]c3c2)CC1` [Compound 2, 4-Amino-5-fluoro-3-[5-(4-methyl-4-oxidopiperazin-1-yl)-1H-benzimidazol-2-yl]quinolin-2(1H)-one], the IC50 [8] was 0.0002 µM and the “presence of the N-oxide metabolite in monkey plasma” value [10] was “not detected”.
For `CN1CCN(c2ccc3nc(-c4c(N)c5c(F)cccc5[nH]c4=O)[nH]c3c2)CC1`, the tolerability ([2]; mouse, in vivo) was “well tolerated”, the IC50 [11] was greater than 25 µM and the IC50 [12] was greater than 25 µM. The IC50 [13] was greater than 25 µM, the IC50 [14] was greater than 25 µM and the IC50 [15] was greater than 25 µM.
